Key:
C. albicans ATCC 10231 = experiment: Broth microdilution antimicrobial assay (MIC, IC50); type: cell-based; settings: Candida albicans, 24 h
Method: (§1) Reference strains of Staphylococcus aureus (ATCC 25923), Escherichia coli (ATCC 25922), and Candida albicans (ATCC 10231) were used in this study as microbial models. These strains were purchased from the American Type Culture Collection (ATCC); bacterial cultures were routinely grown on 5% blood agar plate, while fungal cultures on Sabouraud Dextrose Agar (Biolife […]., Milan, Italy). […] In short, microbial inocula were prepared at 0.5 McFarland in PBS and, subsequently, bacterial suspensions were diluted 1:200 in Mueller-Hinton broth (Sigma-Aldrich, St. Louis, MO, USA), while fungal inoculum was diluted 1:20 in RPMI-1640 medium (Gibco®, ThermoFisher Scientific Inc., Waltham, MA, USA), containing glucose 2%, 0.3% levo-glutamine buffered to pH 7.0 with 0.165 M 3-(N-morpholino) propanesulfonic acid (MOPS). A total of 100 μL of these microbial suspensions was introduced into a 96-well microplate and incubated with 100 μL of the compounds, two-fold serially diluted in the range of 100-0.19 μM. Positive controls (microbial suspensions in regular media), negative controls (only compounds), and solvent controls (microbial suspensions incubated with DMSO dilutions) were included in the tests. The plate was incubated at 37°C for 24 h, and subsequently the optical density at 630 nm (OD630nm) was spectrophotometrically measured. Experiments were carried out in triplicate in three biological replicates. […] Statistical analysis was carried out by using GraphPad Prism version 9.4.1 for Windows (GraphPad Software, San Diego, California USA, www.graphpad.com). ^a MIC (Minimum Inhibitory Concentration) were determined in vitro by means of a standardized microdilution assay, in compliance with the Clinical and laboratory Standard Institute (CLSI) guidelines (30). Microbial suspensions were prepared at 0.5 McFarland in PBS, then diluted in the media and transferred in a 96 micro-well plate together with the serially 2-fold dilutions of the compounds. After 24h of incubation at 37°C, microbial growths were evaluated by measuring the Optical Density at 600 nm, then percentage values were obtained as relative to the positive controls (microbial suspensions in regular media).

E. coli ATCC 25922 = experiment: as above; type: cell-based; settings: Escherichia coli, 24 h
Method: as §1

S. aureus ATCC 25923 = experiment: as above; type: cell-based; settings: Staphylococcus aureus
Method: as §1

E. coli = experiment: Colistin association assay; type: cell-based, Escherichia coli; settings: colistin at sub-inhibitory concentration (MIC/8 = 0.027 µM), versus compound alone
Method: This is a confirmation of the ability of these new QPySs to also affect Gram‐negative proliferation once they pass through the OM.
The dry powder of the chalcone‐based QPySs was resuspended in dimethylsulfoxide (DMSO) at 20 mM and used as stock solutions. For biological investigations, compounds were used in the range 100–0.78 µM, and the solvent in the corresponding percentage range. The following commercially available antimicrobials and toxic clinical drugs were purchased from Sigma‐Aldrich (St. Louis, MO, USA), dissolved in water, and used as reference controls. Gentamicin and ampicillin were used in the range 107.69–0.82 µM and 143.23–1.12 µM, respectively; the colistin was used at 0.03 µM in association with the chalcone‐based QASs with E. coli. The fluconazole was used in the assays with C. albicans in the range 3.27–0.03 µM. […]
In short, microbial inocula were prepared at 0.5 McFarland in PBS and, subsequently, bacterial suspensions were diluted 1:200 in Mueller–Hinton broth (Sigma‐Aldrich, St. Louis, MO, USA), while fungal inoculum was diluted 1:20 in RPMI‐1640 medium (Gibco®, ThermoFisher Scientific Inc., Waltham, MA, USA), containing glucose 2%, 0.3% levo‐glutamine buffered to pH 7.0 with 0.165 M 3‐(N‐morpholino) propanesulfonic acid (MOPS). […] The plate was incubated at 37°C for 24 h, and subsequently the optical density at 630 nm (OD630nm) was spectrophotometrically measured. […]

[1] = Cell viability and proliferation assay (WST8/CCK-8); type: cell-based; settings: African green monkey, Vero cells (ATCC CCL-81), 48 h treatment, CCK-8; read-out: CC50 [95% CI] Vero cells
Method: Vero cell line (ATCC CCL‐81) was selected as a model system to investigate the overall effect of chalcones on non‐malignant mammalian cells. […] For experiments, cells were seeded into 96‐well plates at 10^4 cells/well and incubated at 37°C for 24 h. Following washes with PBS, the cell monolayer was incubated with 100 µL of medium containing the twofold serial dilutions of the compounds. Both untreated cells and cells incubated with medium containing solvent dilutions were included in each experiment as controls. The cell viability was assessed by a WST8‐based assay according to the manufacturer's instructions (CCK‐8, Cell Counting Kit‐8, Dojindo Molecular Technologies, Rockville, MD, USA). After 48 h of incubation, culture medium was removed from each well, the monolayer was washed with PBS, and 100 µL of fresh medium containing 10 µL of CCK‐8 solution was added. Following a 2 h incubation at 37°C, the OD450nm was read, and data were expressed as the percentage of cell viability relative to the untreated controls. The CC50 was obtained on the corresponding dose–response curves generated as previously reported for IC50 values. Experiments were carried out in triplicate in three biological replicates.

C#CCOc1ccc(C(=O)/C=C/c2ccc[n+](CCCCCCCCCCCCCC)c2)c(OCC#C)c1.[Br-] [Compound 6, (E)‐3‐{3‐[2,4‐Bis(prop‐2‐yn‐1‐yloxy)phenyl]‐3‐oxoprop‐1‐en‐1‐yl}‐1‐tetradecylpyridin‐1‐ium bromide]
IC50 (C. albicans ATCC 10231; ATCC10231, 50% growth inhibition, read-out: IC50 [95% confidence interval] Candida albicans): 1.32 µM | MIC (C. albicans ATCC 10231; ATCC10231, broth microdilution, 37°C): 1.56 µM | IC50 (E. coli ATCC 25922; ATCC25922, 50% growth inhibition, read-out: IC50 [95% confidence interval] Escherichia coli): 36.3 µM | MIC (E. coli ATCC 25922; ATCC25922, broth microdilution, 37°C): 50 µM | IC50 (S. aureus ATCC 25923; ATCC25923, 50% growth inhibition, 24 h, read-out: IC50 [95% confidence interval] Staphylococcus aureus): 1.3 µM | MIC (S. aureus ATCC 25923; ATCC25923, 24 h, broth microdilution, 37°C): 3.12 µM | MIC decrease for E. coli in association with colistin (E. coli): fourfold | CC50 at 48 h [1]: 6.16 µM
